Assay results taken from publication PMC12527922, “Cocaine chemogenetics blunts drug-seeking by synthetic physiology” (Nature, 2025).
“And” between values parts separate entries of the source, which are not always exact repeats. Identical values can stand only once. Like-named read-outs stand apart in the source and are kept apart here.

Experiments:
coca-5HT3 = test: Whole-cell voltage-clamp in HEK293 cells, coca-5HT3; assay type: cell-based, human α7 nAChR LBD, mouse 5HT3 IPD
Protocol: Channel mutants and agonists were further characterized in whole-cell voltage-clamp experiments performed on HEK293 cells. At passage 44–48, cells were plated at low density (1 × 10^3 per cm^2) on poly-D-lysine-coated glass coverslips, then transfected in 10 cm^2 wells using the Fugene 6 transfection reagent (Roche) with DNA plasmids containing both an ion channel cDNA (pcDNA3.1, 2 µg per well) and cDNA for GFP (pCMV, 0.1 μg per well), followed by replacement of the medium after 3 h. Recordings were made 24–72 h after transfection.
Electrophysiological recordings were performed in whole-cell voltage-clamp mode, on an inverted fluorescence microscope (Olympus IX-51) using pClamp software and a […] amplifier (Molecular Devices). Electrophysiological data was filtered at 4 kHz, digitized at 10 kHz using a Digidata 1400 interface (Molecular Devices), recorded on a PC (Dell) and analysed using custom MATLAB software (MathWorks). Solutions were delivered from a gravity fed perfusion system through a capillary tube placed approximately […] from the recorded cell using an eight-way manifold pinch valve system (Nanion), which was controlled from the acquisition software. This allowed for up to seven concentrations of agonist to be tested. […]

unmodified α7–GlyR = biological target: T1, unmodified α7–GlyR (Homo sapiens, UniProt P23415+P36544); test: Membrane potential assay, unmodified α7–GlyR; assay type: cell-based; settings: a7-GlyR; for Max normalized AVG: AVG of DR 1-3
T1 construct: expressed in transfected cells; host or cells: HEK293 (ATCC CRL-1573), pcDNA3.1
T1 sequence (P36544+P23415 fused): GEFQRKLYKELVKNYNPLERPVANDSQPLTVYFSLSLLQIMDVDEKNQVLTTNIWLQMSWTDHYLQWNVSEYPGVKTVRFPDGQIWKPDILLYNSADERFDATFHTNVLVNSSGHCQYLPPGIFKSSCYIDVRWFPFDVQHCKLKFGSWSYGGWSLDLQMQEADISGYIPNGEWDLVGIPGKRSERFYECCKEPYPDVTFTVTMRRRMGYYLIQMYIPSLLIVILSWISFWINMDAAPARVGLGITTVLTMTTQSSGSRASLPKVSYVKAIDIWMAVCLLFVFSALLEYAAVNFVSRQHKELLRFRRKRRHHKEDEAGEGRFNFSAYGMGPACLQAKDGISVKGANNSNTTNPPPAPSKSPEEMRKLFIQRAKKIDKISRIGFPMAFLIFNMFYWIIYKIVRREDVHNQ

[1] = tested on: α7–5HT3 mutant chimeric channels; test: cell-based; assay type: cell-based, human α7 nAChR LBD, mouse 5HT3 IPD; settings: for EC50: sheet 1e
[2] = biological target: T2, coca-GlyR (α7(L141G,G175K,Y217F)–GlyR) (Homo sapiens, UniProt P23415+P36544, G175K/L141G/Y217F); test: Membrane potential assay, coca-GlyR in HEK293; assay type: cell-based; settings: coca-GlyR; for Max normalized AVG: AVG of DRs
T2 construct: expressed in transfected cells; host or cells: HEK293 (ATCC CRL-1573), pcDNA3.1
T2 sequence (P36544+P23415 fused P36544:L141G/P36544:G175K/P36544:Y217F): as the sequence (P36544+P23415 fused) above, with L119G, G153K, Y195F counted along it

unmodified α7–5HT3 = biological target: T3, unmodified α7–5HT3 (UniProt P23979+P36544, M226I/T225I); test: Membrane potential assay, unmodified α7–5HT3; assay type: cell-based, human α7 nAChR LBD, mouse 5HT3 IPD; settings: a7-5Ht3; for Max normalized AVG: AVG of DR 1-3; for Max normalized, single replicate: relative to ACh max of the DR
T3 construct: expressed in transfected cells; host or cells: HEK293 (ATCC CRL-1573), pcDNA3.1
T3 sequence (P36544+P23979 fused P36544:T225I/P36544:M226I): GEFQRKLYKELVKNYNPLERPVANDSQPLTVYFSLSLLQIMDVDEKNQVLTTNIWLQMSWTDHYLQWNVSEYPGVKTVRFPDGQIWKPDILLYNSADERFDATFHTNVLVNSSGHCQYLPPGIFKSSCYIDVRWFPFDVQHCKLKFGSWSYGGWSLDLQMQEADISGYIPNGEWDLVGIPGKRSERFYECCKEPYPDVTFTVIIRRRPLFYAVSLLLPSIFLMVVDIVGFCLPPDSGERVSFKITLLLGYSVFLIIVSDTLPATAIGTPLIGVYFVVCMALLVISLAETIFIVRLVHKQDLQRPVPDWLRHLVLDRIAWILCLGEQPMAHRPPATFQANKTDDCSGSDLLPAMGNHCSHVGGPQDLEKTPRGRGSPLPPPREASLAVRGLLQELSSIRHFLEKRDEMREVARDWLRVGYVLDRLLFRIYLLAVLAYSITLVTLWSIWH

[3] = screen of chimeric α7–5HT3 and α7–GlyR single LBD mutants (Fig. 1d)

CC(=O)OCC[N+](C)(C)C [ACh, acetylcholine]
currents from coca-5HT3 (coca-5HT3): shifted above physiological concentrations
Max normalized, single replicate (unmodified α7–GlyR; [ACh] 0.0457247): 0.2482 and 0.1071 and 0.173
Max normalized AVG (unmodified α7–GlyR; [ACh] 0.0457247): 0.1761
Max normalized AVG (unmodified α7–GlyR; [ACh] 0.137174): 0.1486
Max normalized, single replicate (unmodified α7–GlyR; [ACh] 0.411523): 0.2506 and 0.0705 and 0.1596
Max normalized AVG (unmodified α7–GlyR; [ACh] 0.411523): 0.1602
Max normalized, single replicate (unmodified α7–GlyR; [ACh] 1.23457): 0.2787 and 0.09661 and 0.1213
Max normalized AVG (unmodified α7–GlyR; [ACh] 1.23457): 0.1655
Max normalized, single replicate (unmodified α7–GlyR; [ACh] 3.7037): 0.4426 and 0.3029 and 0.2921
Max normalized AVG (unmodified α7–GlyR; [ACh] 3.7037): 0.3459
Max normalized, single replicate (unmodified α7–GlyR; [ACh] 11.1111): 0.8337 and 0.671 and 0.6315
Max normalized AVG (unmodified α7–GlyR; [ACh] 11.1111): 0.7121
Max normalized, single replicate (unmodified α7–GlyR; [ACh] 33.3333): 0.9719 and 0.9347 and 0.9843
Max normalized AVG (unmodified α7–GlyR; [ACh] 33.3333): 0.9636
Max normalized, single replicate (unmodified α7–GlyR; [ACh] 100): 1
Max normalized AVG (unmodified α7–GlyR; [ACh] 100): 1
DR response, single replicate (unmodified α7–GlyR; concentration 0.0457247): 0.077 and 0.106 and 0.041
DR response, single replicate (unmodified α7–GlyR; concentration 0.137174): 0.046 and 0.076 and 0.063
DR response, single replicate (unmodified α7–GlyR; concentration 0.411523): 0.071 and 0.107 and 0.027
DR response, single replicate (unmodified α7–GlyR; concentration 1.23457): 0.054 and 0.119 and 0.037
DR response, single replicate (unmodified α7–GlyR; concentration 3.7037): 0.13 and 0.189 and 0.116
DR response, single replicate (unmodified α7–GlyR; concentration 11.1111): 0.281 and 0.356 and 0.257
DR response, single replicate (unmodified α7–GlyR; concentration 33.3333): 0.438 and 0.415 and 0.358
DR response, single replicate (unmodified α7–GlyR; concentration 100): 0.445 and 0.427 and 0.383
max (DR response of the replicate) (unmodified α7–GlyR; largest response of each DR): 0.445 and 0.427 and 0.383
DR response, single replicate ([2]; [ACh] 1.37174): 0.018 and 0.006 and 0.023 and 0.1 and 0.117 and 0.055 and 0.048 and 0.049
Max normalized, single replicate ([2]; [ACh] 1.37174): 0.004983 and 0.06336 and 0.1695 and 0.06161 and 0.07891 and 0.05993 and 0.05731 and 0.01172
Max normalized AVG ([2]; [ACh] 1.37174): 0.06341
DR response, single replicate ([2]; [ACh] 4.11523): 0.031 (2×) and 0.023 and 0.017 and 0.194 and 0.139 and 0.02 and 0.098
Max normalized, single replicate ([2]; [ACh] 4.11523): 0.0191 and 0.04683 and 0.3288 and 0.0732 and 0.02869 and 0.0387 and 0.1146 and 0.02018
Max normalized AVG ([2]; [ACh] 4.11523): 0.08377
DR response, single replicate ([2]; [ACh] 12.3457): 0.127 and 0.17 and 0.031 and 0.325 and 0.191 and 0.086 and 0.042 and 0.079
Max normalized AVG ([2]; [ACh] 12.3457): 0.1536
DR response, single replicate ([2]; [ACh] 37.037): 0.513 and 0.713 and 0.076 and 0.453 and 1.051 and 0.206 and 0.22 and 0.227
Max normalized, single replicate ([2]; [ACh] 37.037): 0.5922 and 0.2094 and 0.7678 and 0.5534 and 0.2956 and 0.2747 and 0.2655 and 0.334
Max normalized AVG ([2]; [ACh] 37.037): 0.4116
DR response, single replicate ([2]; [ACh] 111.111): 1.218 and 1.065 and 0.222 and 0.557 and 1.552 and 0.373 and 0.414 and 0.475
Max normalized AVG ([2]; [ACh] 111.111): 0.7072
Max normalized, single replicate ([2]; [ACh] 333.333): 0.9626 and 0.9449 and 1 (5×) and 0.9414
Max normalized AVG ([2]; [ACh] 333.333): 0.9811
DR response, single replicate ([2]; [ACh] 1000): 1.536 and 1.204 and 0.363 and 0.524 and 0.67 and 0.657 and 0.77
Max normalized, single replicate ([2]; [ACh] 1000): 1 (3×) and 0.8881 and 0.9613 and 0.8202 and 0.9006
Max normalized AVG ([2]; [ACh] 1000): 0.9386
DR response, single replicate ([2]; [ACh] 3000): 1.183 and 0.791 and 0.464
Max normalized, single replicate ([2]; [ACh] 3000): 0.657 and 0.7864 and 0.7702
Max normalized AVG ([2]; [ACh] 3000): 0.7379
DR response, single replicate (unmodified α7–5HT3; concentration 0.0457247): 0.056 and 0.121 and 0.112
Max normalized AVG (unmodified α7–5HT3; concentration 0.0457247): 0.09523
Max normalized, single replicate (unmodified α7–5HT3; concentration 0.0457247): 0.1142 and 0.1039 and 0.06763
DR response, single replicate (unmodified α7–5HT3; concentration 0.137174): 0.034 and 0.057 and 0.037
Max normalized AVG (unmodified α7–5HT3; concentration 0.137174): 0.04305
Max normalized, single replicate (unmodified α7–5HT3; concentration 0.137174): 0.05377 and 0.03432 and 0.04106
DR response, single replicate (unmodified α7–5HT3; concentration 0.411523): 0.071 and 0.056 and 0.06
Max normalized AVG (unmodified α7–5HT3; concentration 0.411523): 0.06475
Max normalized, single replicate (unmodified α7–5HT3; concentration 0.411523): 0.05283 and 0.05566 and 0.08575
DR response, single replicate (unmodified α7–5HT3; concentration 1.23457): 0.065 and 0.06 and 0.083
Max normalized AVG (unmodified α7–5HT3; concentration 1.23457): 0.0707
Max normalized, single replicate (unmodified α7–5HT3; concentration 1.23457): 0.0566 and 0.07699 and 0.0785
DR response, single replicate (unmodified α7–5HT3; concentration 3.7037): 0.161 and 0.213 and 0.204
Max normalized AVG (unmodified α7–5HT3; concentration 3.7037): 0.1949
Max normalized, single replicate (unmodified α7–5HT3; concentration 3.7037): 0.2009 and 0.1892 and 0.1944
DR response, single replicate (unmodified α7–5HT3; concentration 11.1111): 0.486 and 0.61 and 0.657
Max normalized AVG (unmodified α7–5HT3; concentration 11.1111): 0.5906
Max normalized, single replicate (unmodified α7–5HT3; concentration 11.1111): 0.5755 and 0.6095 and 0.587
DR response, single replicate (unmodified α7–5HT3; concentration 33.3333): 0.828 and 1.06 and 1.078
Max normalized AVG (unmodified α7–5HT3; concentration 33.3333): 1
Max normalized, single replicate (unmodified α7–5HT3; concentration 33.3333): 1
DR response, single replicate (unmodified α7–5HT3; concentration 100): 0.762 and 0.959 and 0.926
Max normalized AVG (unmodified α7–5HT3; concentration 100): 0.8947
Max normalized, single replicate (unmodified α7–5HT3; concentration 100): 0.9047 and 0.859 and 0.9203
max (DR response of the replicate) (unmodified α7–5HT3; largest response of each DR): 0.828 and 1.06 and 1.078
